Assays:
Experiment in all cases: Test C pre/postemergence
Format in all cases: in vivo
[1] = system: morningglory (Ipomoea coccinea); settings: for Plant response rating, Morningglory: Preemergence
In short: (§1)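 Percent control is a visual rating (0 none, 100 complete) taken against untreated plants after 12 to 14 days of greenhouse growth. Applications were made preemergence to seeded pots and postemergence to plants at the 1- to 4-leaf stage, in a non-phytotoxic surfactant-containing solvent.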

soybean (Glycine max) = settings: for Plant response rating, Soybean: Preemergence
In short: as §1

[2] = system: johnsongrass (Sorghum halepense); settings: for Plant response rating, Johnsongrass: Preemergence
In short: as §1

[3] = system: Surinam grass (Brachiaria decumbens); settings: for Plant response rating, Surinam Grass: Preemergence
In short: as §1

[4] = system: goosegrass (Eleusine indica); settings: for Plant response rating, Goosegrass: Preemergence
In short: as §1

[5] = system: common (oilseed) sunflower (Helianthus annuus); settings: Preemergence
In short: as §1

[6] = system: bermudagrass (Cynodon dactylon); settings: for Plant response rating, Bermudagrass: Preemergence
In short: as §1

[7] = system: giant foxtail (Setaria faberii); settings: for Plant response rating, Foxtail, Giant: Preemergence
In short: as §1

[8] = system: woolly cupgrass (Eriochloa villosa); settings: for Plant response rating, Cupgrass, Woolly: Preemergence
In short: as §1

[9] = system: pigweed (Amaranthus retroflexus); settings: for Plant response rating, Pigweed: Preemergence
In short: as §1

[10] = system: crabgrass (Digitaria sanguinalis); settings: for Plant response rating, Crabgrass: Preemergence
In short: as §1

kochia (Kochia scoparia) = settings: Bassia scoparia, post-emergence, Postemergence
In short: as §1

[11] = 62 g ai/ha, scale 0 to 100, 0 no effect, 100 complete control

CCOC(=O)c1nc(C2CC2)nc(N=CN(C)C)c1Br [Compound 40]
0: Plant response rating, Johnsongrass [2, 11] | Plant response rating, Surinam Grass ([3]; 125 g ai/ha, scale 0 to 100) | Plant response rating, Goosegrass [4, 11] | Plant response rating, Goosegrass ([4]; 125 g ai/ha, scale 0 to 100) | Plant response rating, Bermudagrass [6, 11] | Plant response rating, Bermudagrass ([6]; 125 g ai/ha, scale 0 to 100) | Plant response rating, Bermudagrass ([6]; 250 g ai/ha, scale 0 to 100) | Plant response rating, Foxtail, Giant [7, 11] | Plant response rating, Foxtail, Giant ([7]; 125 g ai/ha, scale 0 to 100)
90: Plant response rating, Morningglory ([1]; 125 g ai/ha, scale 0 to 100) | Plant response rating, Morningglory ([1]; 250 g ai/ha, scale 0 to 100) | Plant response rating, Soybean (soybean (Glycine max); 250 g ai/ha, scale 0 to 100) | Plant response rating, Surinam Grass ([3]; 500 g ai/ha, scale 0 to 100) | Plant response rating, Sunflower ([5]; 125 g ai/ha, scale 0 to 100) | Plant response rating, Sunflower ([5]; 250 g ai/ha, scale 0 to 100)
40: Plant response rating, Soybean (soybean (Glycine max); 125 g ai/ha, scale 0 to 100) | Plant response rating, Goosegrass ([4]; 500 g ai/ha, scale 0 to 100)
100: Plant response rating, Morningglory ([1]; 500 g ai/ha, scale 0 to 100) | Plant response rating, Pigweed ([9]; 125 g ai/ha, scale 0 to 100) | Plant response rating, Pigweed ([9]; 250 g ai/ha, scale 0 to 100) | Plant response rating, Pigweed ([9]; 500 g ai/ha, scale 0 to 100) | Plant response rating, Crabgrass ([10]; 500 g ai/ha, scale 0 to 100)
95: Plant response rating, Soybean (soybean (Glycine max); 500 g ai/ha, scale 0 to 100) | Plant response rating, Johnsongrass ([2]; 500 g ai/ha, scale 0 to 100) | Plant response rating, Sunflower ([5]; 500 g ai/ha, scale 0 to 100) | Plant response rating, Cupgrass, Woolly ([8]; 500 g ai/ha, scale 0 to 100)
10: Plant response rating, Soybean (soybean (Glycine max); [11]) | Plant response rating, Surinam Grass ([3]; 250 g ai/ha, scale 0 to 100)
20: Plant response rating, Pigweed [9, 11]
35: Plant response rating, Foxtail, Giant ([7]; 500 g ai/ha, scale 0 to 100)
70: Plant response rating, Bermudagrass ([6]; 500 g ai/ha, scale 0 to 100) | Plant response rating, Cupgrass, Woolly ([8]; 250 g ai/ha, scale 0 to 100)
30: Plant response rating, Foxtail, Giant ([7]; 250 g ai/ha, scale 0 to 100)
80: Plant response rating, Johnsongrass ([2]; 125 g ai/ha, scale 0 to 100) | Plant response rating, Johnsongrass ([2]; 250 g ai/ha, scale 0 to 100)
5: Plant response rating, Goosegrass ([4]; 250 g ai/ha, scale 0 to 100) | Plant response rating, Sunflower [5, 11] | Plant response rating, Cupgrass, Woolly [8, 11] | Plant response rating, Cupgrass, Woolly ([8]; 125 g ai/ha, scale 0 to 100) | Plant response rating, Crabgrass [10, 11]

COC(=O)c1nc(C2CC2)nc(N)c1I [Compound 7]
25%: plant injury at 62 g/ha (soybean (Glycine max); Glycine max, post-emergence, Postemergence, 62 g ai/ha, scale 0 to 100 (0 no effect, 100 complete control), read-out: Soybean plant response rating) | plant injury at 125 g/ha (soybean (Glycine max); Glycine max, post-emergence, Postemergence, 125 g ai/ha, scale 0 to 100 (0 no effect, 100 complete control), read-out: Soybean plant response rating) | pest or weed control at 500 g/ha ([10]; Digitaria sanguinalis, post-emergence, Postemergence, 500 g ai/ha, scale 0 to 100, read-out: Plant response rating, Crabgrass)
65%: pest or weed control at 500 g/ha ([1]; Ipomoea, post-emergence, Postemergence, 500 g ai/ha, scale 0 to 100, read-out: Plant response rating, Morningglory) | pest or weed control at 125 g/ha (kochia (Kochia scoparia); 125 g ai/ha, scale 0 to 100 (0 no effect, 100 complete control), read-out: Kochia plant response rating)
60%: plant injury at 500 g/ha (soybean (Glycine max); Glycine max, post-emergence, Postemergence, 500 g ai/ha, scale 0 to 100, read-out: Plant response rating, Soybean)
55%: pest or weed control at 250 g/ha ([1]; Ipomoea, post-emergence, Postemergence, 250 g ai/ha, scale 0 to 100, read-out: Plant response rating, Morningglory) | pest or weed control at 500 g/ha ([9]; Amaranthus retroflexus, post-emergence, Postemergence, 500 g ai/ha, scale 0 to 100, read-out: Plant response rating, Pigweed)
20%: pest or weed control at 500 g/ha ([8]; Eriochloa villosa, post-emergence, Postemergence, 500 g ai/ha, scale 0 to 100, read-out: Plant response rating, Cupgrass, Woolly) | pest or weed control at 62 g/ha ([9]; Amaranthus retroflexus, post-emergence, Postemergence, 62 g ai/ha, scale 0 to 100 (0 no effect, 100 complete control), read-out: Pigweed plant response rating)
35%: plant injury at 250 g/ha (soybean (Glycine max); Glycine max, post-emergence, Postemergence, 250 g ai/ha, scale 0 to 100, read-out: Plant response rating, Soybean)
10%: pest or weed control at 500 g/ha ([7]; Setaria faberi, post-emergence, Postemergence, 500 g ai/ha, scale 0 to 100, read-out: Plant response rating, Foxtail, Giant)
40%: pest or weed control at 62 g/ha (kochia (Kochia scoparia); 62 g ai/ha, scale 0 to 100 (0 no effect, 100 complete control), read-out: Kochia plant response rating) | pest or weed control at 125 g/ha ([9]; Amaranthus retroflexus, post-emergence, Postemergence, 125 g ai/ha, scale 0 to 100 (0 no effect, 100 complete control), read-out: Pigweed plant response rating) | pest or weed control at 250 g/ha ([9]; Amaranthus retroflexus, post-emergence, Postemergence, 250 g ai/ha, scale 0 to 100, read-out: Plant response rating, Pigweed)
80%: pest or weed control at 500 g/ha (kochia (Kochia scoparia); 500 g ai/ha, scale 0 to 100, read-out: Plant response rating, Kochia)
5%: pest or weed control at 250 g/ha ([10]; Digitaria sanguinalis, post-emergence, Postemergence, 250 g ai/ha, scale 0 to 100, read-out: Plant response rating, Crabgrass)
70%: pest or weed control at 250 g/ha (kochia (Kochia scoparia); 250 g ai/ha, scale 0 to 100, read-out: Plant response rating, Kochia)
50%: pest or weed control at 125 g/ha ([1]; Ipomoea, post-emergence, Postemergence, 125 g ai/ha, scale 0 to 100 (0 no effect, 100 complete control), read-out: Morningglory plant response rating)
0%: pest or weed control at 62 g/ha ([2]; Sorghum halepense, post-emergence, Postemergence, 62 g ai/ha, scale 0 to 100 (0 no effect, 100 complete control), read-out: Johnsongrass plant response rating) | pest or weed control at 125 g/ha ([2]; Sorghum halepense, post-emergence, Postemergence, 125 g ai/ha, scale 0 to 100 (0 no effect, 100 complete control), read-out: Johnsongrass plant response rating) | pest or weed control at 250 g/ha ([2]; Sorghum halepense, post-emergence, Postemergence, 250 g ai/ha, scale 0 to 100, read-out: Plant response rating, Johnsongrass) | pest or weed control at 500 g/ha ([2]; Sorghum halepense, post-emergence, Postemergence, 500 g ai/ha, scale 0 to 100, read-out: Plant response rating, Johnsongrass) | pest or weed control at 125 g/ha ([3]; Urochloa decumbens, post-emergence, Postemergence, 125 g ai/ha, scale 0 to 100 (0 no effect, 100 complete control), read-out: Surinam Grass plant response rating) | pest or weed control at 500 g/ha ([3]; Urochloa decumbens, post-emergence, Postemergence, 500 g ai/ha, scale 0 to 100, read-out: Plant response rating, Surinam Grass) | pest or weed control at 62 g/ha ([3]; Urochloa decumbens, post-emergence, Postemergence, 62 g ai/ha, scale 0 to 100 (0 no effect, 100 complete control), read-out: Surinam Grass plant response rating) | pest or weed control at 250 g/ha ([3]; Urochloa decumbens, post-emergence, Postemergence, 250 g ai/ha, scale 0 to 100, read-out: Plant response rating, Surinam Grass) | pest or weed control at 62 g/ha ([4]; Eleusine indica, post-emergence, Postemergence, 62 g ai/ha, scale 0 to 100 (0 no effect, 100 complete control), read-out: Goosegrass plant response rating) | pest or weed control at 125 g/ha ([4]; Eleusine indica, post-emergence, Postemergence, 125 g ai/ha, scale 0 to 100 (0 no effect, 100 complete control), read-out: Goosegrass plant response rating) | pest or weed control at 250 g/ha ([4]; Eleusine indica, post-emergence, Postemergence, 250 g ai/ha, scale 0 to 100, read-out: Plant response rating, Goosegrass) | pest or weed control at 500 g/ha ([4]; Eleusine indica, post-emergence, Postemergence, 500 g ai/ha, scale 0 to 100, read-out: Plant response rating, Goosegrass) | pest or weed control at 62 g/ha ([6]; Cynodon dactylon, post-emergence, Postemergence, 62 g ai/ha, scale 0 to 100 (0 no effect, 100 complete control), read-out: Bermudagrass plant response rating) | pest or weed control at 125 g/ha ([6]; Cynodon dactylon, post-emergence, Postemergence, 125 g ai/ha, scale 0 to 100, read-out: Plant response rating, Bermudagrass) | pest or weed control at 250 g/ha ([6]; Cynodon dactylon, post-emergence, Postemergence, 250 g ai/ha, scale 0 to 100, read-out: Plant response rating, Bermudagrass) | pest or weed control at 500 g/ha ([6]; Cynodon dactylon, post-emergence, Postemergence, 500 g ai/ha, scale 0 to 100, read-out: Plant response rating, Bermudagrass) | pest or weed control at 125 g/ha ([7]; Setaria faberi, post-emergence, Postemergence, 125 g ai/ha, scale 0 to 100 (0 no effect, 100 complete control), read-out: Foxtail, Giant plant response rating) | pest or weed control at 62 g/ha ([7]; Setaria faberi, post-emergence, Postemergence, 62 g ai/ha, scale 0 to 100 (0 no effect, 100 complete control), read-out: Foxtail, Giant plant response rating) | pest or weed control at 250 g/ha ([7]; Setaria faberi, post-emergence, Postemergence, 250 g ai/ha, scale 0 to 100, read-out: Plant response rating, Foxtail, Giant) | pest or weed control at 62 g/ha ([8]; Eriochloa villosa, post-emergence, Postemergence, 62 g ai/ha, scale 0 to 100 (0 no effect, 100 complete control), read-out: Cupgrass, Woolly plant response rating) | pest or weed control at 125 g/ha ([8]; Eriochloa villosa, post-emergence, Postemergence, 125 g ai/ha, scale 0 to 100 (0 no effect, 100 complete control), read-out: Cupgrass, Woolly plant response rating) | pest or weed control at 250 g/ha ([8]; Eriochloa villosa, post-emergence, Postemergence, 250 g ai/ha, scale 0 to 100, read-out: Plant response rating, Cupgrass, Woolly) | pest or weed control at 62 g/ha ([10]; Digitaria sanguinalis, post-emergence, Postemergence, 62 g ai/ha, scale 0 to 100 (0 no effect, 100 complete control), read-out: Crabgrass plant response rating) | pest or weed control at 125 g/ha ([10]; Digitaria sanguinalis, post-emergence, Postemergence, 125 g ai/ha, scale 0 to 100 (0 no effect, 100 complete control), read-out: Crabgrass plant response rating)
